Results: PubChem BioAssay (NCI)
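Growth conditions: 96-well plates. Treatment: test compound, 48 hours, 5 concentrations. Analysis: linear interpolation between bracketing concentrations; unreached endpoints set to highest concentration. GI50 marks 50% less growth. TGI marks complete inhibition of growth.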 Calls of active or inactive are those of the source. Rule as the data show it: active = GI50 below about 0.43 µM; inactive = the rest.

How the values were obtained:
Experiment in all cases: DTP human tumour cell line panel, 48 h
CCRF-CEM leukemia = system: CCRF-CEM leukemia
CAKI-1 renal = system: CAKI-1 renal
NCI-H226 lung = system: NCI-H226 lung
BT-549 breast = system: BT-549 breast
RPMI-8226 leukemia = system: RPMI-8226 leukemia
UO-31 renal = system: UO-31 renal
ACHN renal = system: ACHN renal
SNB-19 CNS = system: SNB-19 CNS
HCT-15 colon = system: HCT-15 colon

**Q.** For `CCCCCCCCn1ccc2cc(NC(=O)Cn3cc(CN4CCCC4)nn3)ccc21`, which GI50 (CCRF-CEM leukemia) is on record?
**A.** 2.9 µM

**Q.** What about the TGI (CCRF-CEM leukemia) of the same compound?
**A.** > 100 µM

**Q.** What about the GI50 (CAKI-1 renal) of the same compound?
**A.** 1.76 µM

**Q.** What about the TGI (CAKI-1 renal) of the same compound?
**A.** 3.28 µM

**Q.** And the GI50 (NCI-H226 lung)?
**A.** 1.59 µM

**Q.** And the TGI (NCI-H226 lung)?
**A.** 3.16 µM

**Q.** What about the GI50 (BT-549 breast) of the same compound?
**A.** 1.65 µM

**Q.** What about the TGI (BT-549 breast) of the same compound?
**A.** 3.39 µM

**Q.** What about the GI50 (RPMI-8226 leukemia) of the same compound?
**A.** 2.18 µM

**Q.** What about the TGI (RPMI-8226 leukemia) of the same compound?
**A.** 5.17 µM

**Q.** And the GI50 (UO-31 renal)?
**A.** 1.54 µM

**Q.** And the TGI (UO-31 renal)?
**A.** 2.88 µM

**Q.** What about the GI50 (ACHN renal) of the same compound?
**A.** 1.69 µM

**Q.** And the TGI (ACHN renal)?
**A.** 3.07 µM

**Q.** And the GI50 (SNB-19 CNS)?
**A.** 1.73 µM

**Q.** What about the TGI (SNB-19 CNS) of the same compound?
**A.** 3.34 µM

**Q.** What about the GI50 (HCT-15 colon) of the same compound?
**A.** 1.84 µM

**Q.** And the TGI (HCT-15 colon)?
**A.** 3.79 µM

**Q.** How did the GI50 (CCRF-CEM leukemia) turn out when `CC/C=C\C[C@@H](O)C/C=C1/C(=O)C=C[C@H]1C/C=C\CCCC(=O)OC` was run?
**A.** 0.461 µM

**Q.** What about the TGI (CCRF-CEM leukemia) of the same compound?
**A.** 4.36 µM

**Q.** And the GI50 (CAKI-1 renal)?
**A.** 3.57 µM

**Q.** And the TGI (CAKI-1 renal)?
**A.** 13.5 µM

**Q.** And the GI50 (NCI-H226 lung)?
**A.** 2.14 µM

**Q.** And the TGI (NCI-H226 lung)?
**A.** 5.04 µM

**Q.** What about the GI50 (BT-549 breast) of the same compound?
**A.** 2.94 µM

**Q.** And the TGI (BT-549 breast)?
**A.** 8.81 µM

**Q.** And the GI50 (RPMI-8226 leukemia)?
**A.** 1.83 µM

**Q.** And the TGI (RPMI-8226 leukemia)?
**A.** 7.4 µM

**Q.** What about the GI50 (UO-31 renal) of the same compound?
**A.** 1.73 µM

**Q.** What about the TGI (UO-31 renal) of the same compound?
**A.** 3.34 µM

**Q.** And the GI50 (ACHN renal)?
**A.** 1.97 µM

**Q.** What about the TGI (ACHN renal) of the same compound?
**A.** 4.02 µM

**Q.** And the GI50 (SNB-19 CNS)?
**A.** 4.62 µM

**Q.** And the TGI (SNB-19 CNS)?
**A.** 19.4 µM

**Q.** What about the GI50 (HCT-15 colon) of the same compound?
**A.** 2.49 µM

**Q.** What about the TGI (HCT-15 colon) of the same compound?
**A.** 7.47 µM

**Q.** Which results are given for `CCCn1c(=S)sc2c1nc(C)n1c(Nc3ccccc3)nnc21`?
**A.** GI50 (CCRF-CEM leukemia): 4.32 µM; TGI (CCRF-CEM leukemia): > 100 µM; GI50 (CAKI-1 renal): 6.05 µM; TGI (CAKI-1 renal): 62.4 µM; GI50 (NCI-H226 lung): 4.98 µM; TGI (NCI-H226 lung): 23.6 µM; GI50 (BT-549 breast): 2.99 µM; TGI (BT-549 breast): 12 µM; GI50 (RPMI-8226 leukemia): 4.22 µM; TGI (RPMI-8226 leukemia): 39.3 µM; GI50 (UO-31 renal): 5.05 µM; TGI (UO-31 renal): > 100 µM; GI50 (ACHN renal): 5.05 µM; TGI (ACHN renal): > 100 µM; GI50 (SNB-19 CNS): 3.94 µM; TGI (SNB-19 CNS): > 100 µM; GI50 (HCT-15 colon): 5.09 µM; TGI (HCT-15 colon): > 100 µM

**Q.** What does the source list for `COc1ccc(C(=O)C#Cc2cnc(OC)nc2OC)cc1`?
**A.** GI50 (CCRF-CEM leukemia): 2530 µM; TGI (CCRF-CEM leukemia): 10800 µM; GI50 (CAKI-1 renal): 25300 µM; GI50 (NCI-H226 lung): 16900 µM; GI50 (BT-549 breast): 25400 µM; GI50 (RPMI-8226 leukemia): 40100 µM; TGI (RPMI-8226 leukemia): 5.2 µM; GI50 (UO-31 renal): 19100 µM; GI50 (ACHN renal): 17200 µM; TGI (SNB-19 CNS): 24.7 µM; outcome (SNB-19 CNS): inactive; GI50 (HCT-15 colon): 17200 µM

**Q.** What does the source list for `O=C(O)c1nn(-c2ccccc2-c2n[nH]c(=O)[nH]c2=O)c(=O)[nH]c1=O`?
**A.** TGI (CCRF-CEM leukemia): > 100 µM; TGI (CAKI-1 renal): > 100 µM; TGI (NCI-H226 lung): > 100 µM; TGI (BT-549 breast): > 100 µM; TGI (RPMI-8226 leukemia): > 100 µM; TGI (UO-31 renal): > 100 µM; TGI (ACHN renal): > 100 µM; TGI (SNB-19 CNS): > 100 µM; TGI (HCT-15 colon): > 100 µM

**Q.** With `CC1CN1C(=O)NCCCCCCNC(=O)N1CC1C` (centres undefined) as the compound, how does the TGI (CCRF-CEM leukemia) read?
**A.** > 93 µM

**Q.** What about the TGI (CAKI-1 renal) of the same compound?
**A.** > 100 µM

**Q.** And the TGI (NCI-H226 lung)?
**A.** > 100 µM

**Q.** What about the TGI (BT-549 breast) of the same compound?
**A.** > 100 µM

**Q.** What about the TGI (RPMI-8226 leukemia) of the same compound?
**A.** > 100 µM

**Q.** And the TGI (UO-31 renal)?
**A.** > 100 µM

**Q.** And the TGI (ACHN renal)?
**A.** > 100 µM

**Q.** And the TGI (SNB-19 CNS)?
**A.** > 100 µM

**Q.** And the TGI (HCT-15 colon)?
**A.** > 100 µM
